{
  "source": "patent EP0414755B1",
  "about": "“INTERACTION SYSTEM COMPRISING A SURFACTANT-STABILIZED DISPERSE AQUEOUS PHASE CONTAINING AN ANTIBODY OR ANTIBODY FRAGMENT” (IGEN, INC., priority 1988, dated 1989)",
  "key": {"[1]": {"tested_on": "48-G7 antibody (monoclonal IgG made against a p-nitrophenylphosphonate hapten)", "assay": "48-G7 antibody-catalyzed hydrolysis of p-nitrophenylcarbonate in aqueous tris buffer, inhibition by transition state analog", "type": "biochemical", "details": "24 µM inhibitor, 90 µg/ml 48-G7, 10 mM tris buffer pH 8.5", "description": "A solution of the 48-G7 antibody was purified from ascites fluid by Protein A chromatography. Following dialysis of the IgG fractions which were obtained into 10 mM tris buffer, 4.0 ml of a 3.0 mg/ml solution of this protein was lyophilyzed to dryness. The protein powder was then resuspended in 1.5 ml of 10 mM tris buffer (pH 8.5). When 10 µl of this antibody solution was added to one milliliter of buffer, a protein concentration of 0.090 mg/ml resulted (as determined from 280 nm and 260 nm absorbances). Thus, the stock antibody solution was 9.0 mg/ml.\nThe rate of antibody catalyzed hydrolysis of p-nitrophenylcarbonate was determined by adding 15 µl of a 50 mM p-nitrophenylcarbonate (p-NPC) solution dissolved in tetrahydrofuran to 3.0 ml of 10 mM tris buffer (pH 8.5). After this solution was mixed to homogeneity, 1.0 ml was transferred into a reference cuvette and 1.0 ml was transferred into a sample cuvette. An assay was initiated by addition of 10 µl of the 48-G7 antibody solution (0.090 mg). The progress of the reaction was monitored with a Hitachi Model 3200 double beam spectrophotometer (to screen out the rate of solvent-induced background hydrolysis) at 400 nm. The extinction coefficient for the product, p-nitrophenol, was 18,300 M^-1 cm^-1 at pH 8.5."}, "[2]": {"tested_on": "48-G7 antibody (monoclonal IgG made against a p-nitrophenylphosphonate hapten)", "assay": "48-G7 antibody-catalyzed hydrolysis of p-nitrophenylcarbonate in AOT/iso-octane microemulsion, inhibition by transition state analog", "type": "biochemical", "details": "24 µM final concentration of inhibitor; 50 mM AOT in iso-octane, 888 µM p-NPC; uninhibited rate 0.00028 Abs/minute", "description": "The rate of 48-G7 antibody-catalyzed hydrolysis of p-NPC was determined in a 50 mM solution of sodium bi-(2-ethylhexyl) sulfosuccinate (\"AOT\") in iso-octane containing 888 µM of p-NPC. First 20 ml of the iso-octane solution containing 0.445 g of AOT (M.W.=445g) and 3.5 mg of p-NPC (M.W.-197g) were prepared. To this solution […] (pH 8.5) and 10 µl of the 48-G7 antibody solution were added. A microemulsion of disperse aqueous phase in the iso-octane was obtained by mixing. The hydrolysis of p-NPC and the production of p-nitrophenol was monitored at 400 nm, although an accurate conversion between 400 nm absorbance and moles of p-nitrophenol formed was not possible because the pH inside the microemulsified aqueous phase particles could not be accurately determined.\nUpon addition of the 48-G7 antibody solution, the biphasic system became turbid as the antibody-containing, microemulsified aqueous phase particles formed. Subsequently, absorbance at 400 nm began to increase as p-nitrophenol was formed. The rate of 400 nm absorbance increase was 0.00028 Abs/minute.\nWhen this experiment was repeated with the 10 µl of tris buffer containing 2.4 mM p-nitrophosphonate hapten (24 µM final concentration), the initial 400 nm absorbance was similar to the non-inhibited antibody solution. […] Instead, the 400 nm absorbance continued to decrease. […]"}},
  "data": [
    {"smiles": "O=[N+]([O-])c1ccc(P(=O)(O)O)cc1", "note": "[p-nitrophenylphosphonate]", "values": [
      {"measurement": "rate of hydrolysis of p-NPC in the presence of inhibitor", "setting": "[1]; uninhibited rate 0.49 µmolar p-NPC per minute", "value": 0.109, "unit": "µM/min"},
      {"measurement": "rate of hydrolysis of p-NPC in the presence of inhibitor (400 nm absorbance)", "setting": "[1]; uninhibited rate 0.0089 Abs/min", "value": 0.002, "unit": "Abs units/minute"},
      {"measurement": "400 nm absorbance (p-nitrophenylcarbonate hydrolysis) in the presence of inhibitor", "setting": "[2]", "value": "did not rise"}
    ]}
  ]
}
